Measured values from PMC10791743, “Selective CK1α degraders exert antiproliferative activity against a broad range of human cancer cell lines” (Nature Communications, 2024).
Several values for one entry are separate records, joined by “and”; a condition that tells them apart may be missing. Equal values may be shown once.

Assays:
CK1α = CK1α (Homo sapiens, UniProt P48729+Q96SW2); assay: In vivo PD: CK1α protein levels in MOLM-13 xenograft (western blot of human cells from bone marrow); set-up: quantified western blots of isolated human cells from the bone marrow of treated mice; endogenous in cells; host or cells: MOLM-13 xenograft cells from NSG mouse bone marrow, murine cells depleted; species or system NSG mice engrafted with MOLM-13 cells; details: for CK1a quantified western blot signal, group mean (Mean 2): n 3, DMSO mean 0.9882; for CK1a quantified western blot signal, individual animals: relative to DMSO; for CK1α protein level in vivo: 48 h
Sequence of CK1α (P48729 whole entry): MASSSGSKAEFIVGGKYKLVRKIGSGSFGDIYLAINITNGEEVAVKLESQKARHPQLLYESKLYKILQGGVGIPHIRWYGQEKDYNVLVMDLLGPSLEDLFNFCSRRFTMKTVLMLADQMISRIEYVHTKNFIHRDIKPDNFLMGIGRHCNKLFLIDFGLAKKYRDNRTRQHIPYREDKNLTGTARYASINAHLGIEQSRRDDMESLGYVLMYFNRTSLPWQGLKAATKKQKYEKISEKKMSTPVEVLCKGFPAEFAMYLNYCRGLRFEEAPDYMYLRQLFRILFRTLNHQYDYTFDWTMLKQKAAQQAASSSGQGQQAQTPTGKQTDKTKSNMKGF
Sequence of CK1α (Q96SW2 whole entry): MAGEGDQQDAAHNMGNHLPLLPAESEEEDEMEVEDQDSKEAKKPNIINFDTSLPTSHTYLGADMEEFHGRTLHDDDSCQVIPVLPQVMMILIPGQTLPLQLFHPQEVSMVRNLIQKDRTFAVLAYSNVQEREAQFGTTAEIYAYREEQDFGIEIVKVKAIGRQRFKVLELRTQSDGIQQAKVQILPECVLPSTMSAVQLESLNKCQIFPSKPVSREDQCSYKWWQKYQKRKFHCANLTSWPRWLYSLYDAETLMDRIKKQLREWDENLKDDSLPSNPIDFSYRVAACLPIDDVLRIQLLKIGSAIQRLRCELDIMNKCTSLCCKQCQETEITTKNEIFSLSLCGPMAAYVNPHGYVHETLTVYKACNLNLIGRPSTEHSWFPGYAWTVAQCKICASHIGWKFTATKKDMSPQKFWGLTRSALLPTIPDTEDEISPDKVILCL
Sequence of CK1α (Q16531 whole entry partner): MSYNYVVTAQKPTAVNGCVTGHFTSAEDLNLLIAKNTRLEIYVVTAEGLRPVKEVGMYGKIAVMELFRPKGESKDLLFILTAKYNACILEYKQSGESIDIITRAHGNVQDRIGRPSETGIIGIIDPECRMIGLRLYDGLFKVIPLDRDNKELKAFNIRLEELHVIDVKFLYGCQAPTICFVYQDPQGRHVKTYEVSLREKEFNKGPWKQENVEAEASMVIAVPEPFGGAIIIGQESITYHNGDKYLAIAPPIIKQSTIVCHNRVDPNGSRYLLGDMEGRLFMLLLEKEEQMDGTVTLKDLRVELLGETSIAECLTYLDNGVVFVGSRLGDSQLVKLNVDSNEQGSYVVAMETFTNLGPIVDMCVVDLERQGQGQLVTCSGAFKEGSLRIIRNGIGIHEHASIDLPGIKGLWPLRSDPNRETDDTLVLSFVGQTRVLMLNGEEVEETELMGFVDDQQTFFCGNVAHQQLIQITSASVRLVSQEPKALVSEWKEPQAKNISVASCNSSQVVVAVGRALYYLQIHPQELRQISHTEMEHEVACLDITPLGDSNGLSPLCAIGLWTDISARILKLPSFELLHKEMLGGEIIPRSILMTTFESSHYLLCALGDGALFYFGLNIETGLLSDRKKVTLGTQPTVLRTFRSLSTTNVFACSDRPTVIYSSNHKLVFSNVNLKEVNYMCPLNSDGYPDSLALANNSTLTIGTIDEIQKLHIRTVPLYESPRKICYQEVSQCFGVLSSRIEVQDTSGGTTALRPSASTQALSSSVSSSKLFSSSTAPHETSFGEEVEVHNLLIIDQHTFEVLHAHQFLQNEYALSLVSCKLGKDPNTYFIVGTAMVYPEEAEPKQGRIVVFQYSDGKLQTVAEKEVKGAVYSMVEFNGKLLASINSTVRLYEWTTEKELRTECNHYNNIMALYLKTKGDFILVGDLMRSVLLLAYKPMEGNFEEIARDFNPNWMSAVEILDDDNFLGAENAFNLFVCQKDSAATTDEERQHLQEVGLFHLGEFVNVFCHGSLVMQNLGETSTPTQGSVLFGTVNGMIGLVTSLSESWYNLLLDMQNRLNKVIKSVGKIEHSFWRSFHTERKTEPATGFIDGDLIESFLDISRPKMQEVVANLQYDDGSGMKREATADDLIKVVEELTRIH
Procedure: For the PD experiment, NSG mice engrafted with MOLM-13 cells were treated for 48 h with SJ3149 or DMSO vehicle in 4 groups: vehicle, 50 mg/kg once per day, or vehicle or 50 mg/kg twice per day (Fig. 6). After 48 h, the mice were sacrificed and human cells were isolated from the collected bone marrow and lysed for western blot analysis.
(§1) For the xenograft transplantation study, female NSG mice (NOD.Cg-Prkdc^scid Il2rg^tm1Wjl/SzJ, Strain #005557, The Jackson Laboratory) aged 6–8 weeks were transplanted with 100,000 MOLM-13 cells by tail-vein injection. 10 days post-transplantation, mice were treated with SJ3149 via intraperitoneal injections for the following 2-day dosing schedule: 50 mg/kg (1 dose every 12 h), and 50 mg/kg (1 dose every 24 h) with n = 3 per group. Control groups (n = 3) were treated with DMSO either 1 dose every 24 h or 1 dose every 12 h with equal volume as treatment groups. Mice were euthanized 48 h after the first treatment and bone marrow cells were collected. Murine cells were depleted using the EasySep Mouse/Human Chimera isolation kit ([…] Technologies #19849). NSG mice were housed in microisolation cages and kept under barrier conditions to keep them specific pathogen-free. The lights for NSG mice are on an automated 12-h on, 12-h off light cycle. The mouse room has a separate thermostat and humidistat to control temperature and humidity at the room level. Sex was not considered beyond female mice being most commonly used for cell line-derived xenografts. Ethical approval by the St. Jude Institutional Animal Care and Use Committee.
as §1, with “Female” for “For the xenograft transplantation study, female”

IKZF2 = target: T1, IKZF2 (Homo sapiens, UniProt Q96SW2+Q9UKS7); assay: IKZF2 immunoblotting in MOLM-13 cells; format: cell-based
T1 construct: endogenous in cells; host or cells: MOLM-13
T1 sequence (Q9UKS7 whole entry): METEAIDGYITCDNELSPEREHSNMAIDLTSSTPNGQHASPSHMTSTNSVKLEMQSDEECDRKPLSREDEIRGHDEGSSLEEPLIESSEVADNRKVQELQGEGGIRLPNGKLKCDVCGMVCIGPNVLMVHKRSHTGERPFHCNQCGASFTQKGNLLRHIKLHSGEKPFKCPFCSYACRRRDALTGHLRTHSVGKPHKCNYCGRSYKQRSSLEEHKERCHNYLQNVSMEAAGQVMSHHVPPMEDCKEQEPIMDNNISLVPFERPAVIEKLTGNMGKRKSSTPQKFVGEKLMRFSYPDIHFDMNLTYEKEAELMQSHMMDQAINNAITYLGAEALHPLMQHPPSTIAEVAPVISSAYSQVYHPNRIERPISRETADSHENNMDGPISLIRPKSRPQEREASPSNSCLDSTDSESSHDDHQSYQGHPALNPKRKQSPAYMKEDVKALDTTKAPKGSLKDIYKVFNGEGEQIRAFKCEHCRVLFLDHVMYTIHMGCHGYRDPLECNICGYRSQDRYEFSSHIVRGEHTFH
T1 sequence (Q96SW2 whole entry): as the sequence (Q96SW2 whole entry) above
T1 sequence (Q16531 whole entry partner): as the sequence (Q16531 whole entry partner) above
Procedure: We further tested the specificity of SJ3149 considering that previously reported CK1α degraders also lead to degradation of IKZF2[26]. Even though there was a negligible change in IKZF2 protein level in our proteomics studies, we sought to confirm this observation by immunoblotting. In a similar experiment to those shown in Fig. 2b, MOLM-13 cells were treated with SJ3149 for 4 h at increasing concentrations ranging from 1 nM to 10 µM and analyzed by immunoblotting to quantify IKZF2 and CK1α proteins. While at 4 nM concentration SJ3149 induced 50% degradation of CK1α protein, IKZF2 levels were reduced by only ~40% at the highest dose (10 μM), confirming the selectivity of SJ3149 for CK1α over IKZF2 (Supplementary Fig. 6d). These collective data support the claim that CK1α degradation is responsible for the observed cellular phenotypes induced by SJ3149 treatment.
Frozen pellets of ~1 million cells were lysed in 150 µl of SDS lysis buffer (60 mM Tris/HCl pH 7, 10% glycerol, 2% SDS, 5% beta-mercaptoethanol, 0.02% bromophenol blue, 0.5% protease and phosphatase inhibitor cocktail (Sigma Aldrich)). When cells were resuspended, samples were heated for 3 min at 99 °C then put on ice. Samples were then fragmented by sonication for 10 0.5-s pulses (550 Sonic Dismembrator, Fisher Scientific) and heated again at 99 °C for 2 min. 15 μl of each sample was added to the wells of a 4–20% polyacrylamide gel (Bio-Rad). A mixture of 2 μl of Precision Plus Protein Unstained Standards and 2 μl of Precision Plus Protein All Blue Standards (Bio-Rad) was used for the size marker. After electrophoresis, gels were transferred to nitrocellulose membrane using the Bio-Rad Trans-Blot Turbo system on the mixed molecular weight setting. Membranes were blocked for 1 h in Li-Cor Intercept Blocking Buffer then probed overnight at 4 °C with primary antibody, at 1:1000 dilution or 1:2000 dilution for actin, in Li-Cor Intercept Antibody Diluent. The following morning, membranes were washed three times for 5 min with TBS + 0.05% Tween-20, probed with fluorescent secondary antibodies (goat anti-rabbit IRDye 800CW and goat anti-mouse IRDye 680RD, Li-Cor) for 1 h at room temperature in the dark at 1:10,000 dilution, and washed again 3 times. Blots were imaged with the Li-Cor Odyssey CLx and analyzed using Image Studio Version 5.2.
Primary antibodies used: rabbit anti-CK1α, ab206652, clone EPR19824, Abcam rabbit anti-p21, 2947S, clone 12D1, Cell Signaling Technology rabbit anti-Helios (IKZF2), 42427, clone D8W4X, Cell Signaling Technology mouse anti-beta actin, 3700S, clone 8H10D10, Cell Signaling Technology

[1] = western blot quantification, relative to DMSO

**Q.** `O=C1CCC(N2Cc3cc(Nc4noc5ccccc45)ccc3C2=O)C(=O)N1` (stereo not shown) [SJ3149] was tested. Which “CK1a quantified western blot signal, group mean (Mean 2)” value (CK1α; 50 mg/kg 1x/day) did it give?
**A.** 0.3507

**Q.** And the “CK1a quantified western blot signal, individual animals” value (CK1α; 50 mg/kg 1x/day)?
**A.** 0.2018 and 0.4461 and 0.4041

**Q.** What about the “CK1a quantified western blot signal, group mean (Mean 2)” value (CK1α; 50 mg/kg 2x/day) of the same compound?
**A.** 0.212

**Q.** What about the “CK1a quantified western blot signal, individual animals” value (CK1α; 50 mg/kg 2x/day) of the same compound?
**A.** 0.07248 and 0.5016 and 0.06191

**Q.** And the “CK1a quantified western blot signal, group mean (Mean 2)” value (CK1α; 100 mg/kg 1x/day)?
**A.** 0.4998

**Q.** What about the “CK1a quantified western blot signal, individual animals” value (CK1α; 100 mg/kg 1x/day) of the same compound?
**A.** 0.1574 and 0.8298 and 0.5123

**Q.** And the “CK1α protein level in vivo” value (CK1α; IP 50 mg/kg once per day)?
**A.** significant degradation of CK1α

**Q.** What about the “CK1α protein level in vivo” value (CK1α; IP 50 mg/kg twice per day) of the same compound?
**A.** significant degradation of CK1α

**Q.** What about the IKZF2 level reduction (IKZF2; MOLM-13, 10 μM, 4 h) of the same compound?
**A.** ~ 40%

**Q.** What about the “IKZF2 western blot quantification” value (IKZF2; SJ3149 0.001 uM, relative to DMSO) of the same compound?
**A.** 1.093 and 0.9655 and 0.8978

**Q.** What about the “IKZF2 western blot quantification” value (IKZF2; SJ3149 0.01 uM, relative to DMSO) of the same compound?
**A.** 0.8205 and 1.143 and 0.8035

**Q.** What about the “IKZF2 western blot quantification” value (IKZF2; SJ3149 0.1 uM, relative to DMSO) of the same compound?
**A.** 0.5925 and 0.7587 and 0.8297

**Q.** And the “IKZF2 western blot quantification” value (IKZF2; SJ3149 1 uM, relative to DMSO)?
**A.** 0.5412 and 0.7758 and 0.64

**Q.** What about the “IKZF2 western blot quantification” value (IKZF2; SJ3149 10 uM, relative to DMSO) of the same compound?
**A.** 0.4999 and 0.6664 and 0.6326

**Q.** What about the “Bottom (sigmoidal 4PL fit) of IKZF2 protein level” value (IKZF2; [1]) of the same compound?
**A.** 0.61

**Q.** And the “Top (sigmoidal 4PL fit) of IKZF2 protein level” value (IKZF2; [1])?
**A.** 1.002
